Experiments:
Format in all cases: in vivo, Kunming mice
IkB-α = IkB-α mRNA in lung tissue by qRT-PCR; settings: Gen-17 (12.5, 25, 50 mg/kg gavage) compared with LPS group (P<0.001)
Protocol: (§1) A total of 144 SPF-grade healthy Kunming mice, aged 5-7 weeks and weighing 18-22 g, are weighed and randomly allocated into six experimental groups: control group (NS), model group (LPS), dexamethasone group (DEX, […] per kilogram abbreviated as mg/kg), genipin beta-methyl derivative low-dose group (12.5 mg/kg), genipin beta-methyl derivative medium-dose group (25 mg/kg), and genipin beta-methyl derivative high-dose group (50 mg/kg), 24 animals per group, in which 12 animals are used to take lung tissue for the detection of other indicators, and another 12 animals are used to collect BALF. […]
(§2) Samples are collected 24 hours after the animal model is established. […] Lung tissues are collected and the whole lung wet weight is measured. […] After tidying, the lungs are photographed, excess tissues such as the trachea are cleared away, and the wet weight of the whole lung is measured to calculate the lung index. • (3) The upper lobe of the left lung is fixed in 4% neutral paraformaldehyde, fixed for 24 hours, paraffin-embedded and sectioned for HE staining. • (4) The remaining lung tissues are put into centrifugal tubes separately, quickly frozen in liquid nitrogen, and then stored at −80° C. after the experiment, which is used for the detection of MDA, SOD, western blotting (WB) and reverse transcription polymerase chain reaction (RT-PCR). […]

IL-6 = IL-6 content in BALF by ELISA
Protocol: (§3) A total of 144 SPF-grade healthy Kunming mice, aged 5-7 weeks and weighing 18-22 g, are weighed and randomly allocated into six experimental groups: control group (NS), model group (LPS), dexamethasone group (DEX, […] per kilogram abbreviated as mg/kg), genipin beta-methyl derivative low-dose group (12.5 mg/kg), genipin beta-methyl derivative medium-dose group (25 mg/kg), and genipin beta-methyl derivative high-dose group (50 mg/kg), 24 animals per group, in which 12 animals are used to take lung tissue for the detection of other indicators, and another 12 animals are used to collect BALF.
(§4) All mice are gavaged with a same volume of 0.9% normal saline once a day in the NS group and the LPS group, DEX solution (0.39 mg/kg) is gavaged once a day in the DEX group, low-dose Gen-17 solution (12.5 mg/kg) is gavaged once a day in the medium-dose Gen-17 group, medium-dose Gen-17 solution (25 mg/kg) is gavaged once a day in the high-dose Gen-17 group, and high-dose Gen-17 solution (50 mg/kg) is gavaged once a day in the high-dose Gen-17 group. The dosage is converted according to the weight of the mice, and the gavage volume is 20 milliliters per kilogram (mL/kg), and the gavage is continued for 3 days. One hour after the gavage on the third day, the ALI model is established by tracheal instillation of LPS solution. […]

SOD = SOD activity in lung tissue; settings: compared with LPS group
Protocol: The dosage is converted according to the weight of the mice, and the gavage volume is 20 milliliters per kilogram (mL/kg), and the gavage is continued for 3 days. One hour after the gavage on the third day, the ALI model is established by tracheal instillation of LPS solution. […] After the mice are awake, they are raised as usual. 2.3 Treatment of Experimental Animals and Collection of Lung Tissue Specimens
Samples are collected 24 hours after the animal model is established. The mice are weighed and 12 mice in each group are sacrificed. Lung tissues are collected and the whole lung wet weight is measured. […] After tidying, the lungs are photographed, excess tissues such as the trachea are cleared away, and the wet weight of the whole lung is measured to calculate the lung index. • (3) The upper lobe of the left lung is fixed in 4% neutral paraformaldehyde, fixed for 24 hours, paraffin-embedded and sectioned for HE staining. • (4) The remaining lung tissues are put into centrifugal tubes separately, quickly frozen in liquid nitrogen, and then stored at −80° C. after the experiment, which is used for the detection of MDA, SOD, western blotting (WB) and reverse transcription polymerase chain reaction (RT-PCR). […]
The lung tissue is taken out from −80° C., and its weight is accurately measured.

NF-κB p65 = NF-κB p65 protein in lung tissue by WB
Protocol: as §1, §2

IKKα/β = IKKα/β mRNA in lung tissue by qRT-PCR; settings: Gen-17 (12.5, 25, 50 mg/kg gavage) compared with LPS group (P<0.001)
Protocol: as §1, §2

IL-1β = IL-1β content in BALF by ELISA
Protocol: as §3, §4

TNF-α = TNF-α mRNA in lung tissue by qRT-PCR
Protocol: as §1, §2

LPS-induced ALI mice = assay: Total cell count in BALF
Protocol: as §3
All mice are gavaged with a same volume of 0.9% normal saline once a day in the NS group and the LPS group, DEX solution (0.39 mg/kg) is gavaged once a day in the DEX group, low-dose Gen-17 solution (12.5 mg/kg) is gavaged once a day in the medium-dose Gen-17 group, medium-dose Gen-17 solution (25 mg/kg) is gavaged once a day in the high-dose Gen-17 group, and high-dose Gen-17 solution (50 mg/kg) is gavaged once a day in the high-dose Gen-17 group. The dosage is converted according to the weight of the mice, and the gavage volume is 20 milliliters per kilogram (mL/kg), and the gavage is continued for 3 days. One hour after the gavage on the third day, the ALI model is established by tracheal instillation of LPS solution. The specific experimental procedures are as follows. • (1) Before the operation, the mice are anesthetized by intraperitoneal injection of 1% sodium pentobarbital (30 mg/kg) according to their body weight. • (2) Limbs of anesthetized mice are fixed with rubber bands, teeth are wired with thin threads, and neck skin is disinfected with 75% alcohol. • (3) A subcutaneous tissue is separated along a longitudinal incision in a middle of the mouse neck until a cartilage ring appeared in an exposed trachea. • (4) A microinjector is inserted into the trachea in parallel towards a proximal end for about 1 centimeter (cm). Sterile NS is slowly dripped into the trachea of the control group, and LPS is dripped into the trachea of the other groups. • (5) After pulling out the microinjector, the mice are upright immediately, rotated and shaken evenly for 2 minutes (min), then the neck wound is sutured, and the state of the mice is observed. After the mice are awake, they are raised as usual. 2.3 Treatment of Experimental Animals and Collection of Lung Tissue Specimens
BALF is collected 24 hours after the establishment of the animal model. First, the remaining 12 mice in each group are weighed, and then BALF is extracted. The extracted BALF is used for total cell count, total protein content determination and enzyme-linked immunosorbent assay (ELISA) determination of IL-1B, IL-6 and TNF-α in BALF. The specific experimental procedures are as follows. • (1) After weighing, the mice are anesthetized by intraperitoneal injection of pentobarbital sodium according to their weight; • (2) When the tail root, hind limbs, eyelash reflex and other activities of mice disappear, and the mice breathe slowly and evenly, the limbs and teeth of mice are fixed, the neck skin of mice is disinfected with 75% alcohol, and the neck tissue is opened longitudinally, so that the tracheal cartilage ring is exposed. Tracheal puncture is performed with a 19G trocar catheter, the needle is inserted for about 1 cm, the needle core is pulled out, a 1 ml syringe is connected, and precooled normal saline (0.8 mL/time, repeat 2 times) is slowly injected. […]

[1] = low-dose Gen-17 12.5 mg/kg gavage, compared with DEX group (P<0.01)

Structure (SMILES): COC(=O)C1=CO[C@@H](OC)[C@@H]2C(COC(=O)c3cccc(Br)c3)=CC[C@H]12 [Gen-17, genipin beta-methyl derivative]
- mRNA expression of IkB-α in lung tissue (IkB-α): significantly reduce the expression
- content of IL-6 in BALF (IL-6; Gen-17 groups (12.5, 25, 50 mg/kg gavage) compared with LPS group): reduce the contents of inflammatory cytokines
- IL-6 level in BALF (IL-6; [1]): statistically significant reduction
- SOD activity in lung tissue (SOD; after drug treatment): significantly increase the SOD activity
- SOD activity in lung tissue (increase) (SOD; high-dose Gen-17 50 mg/kg gavage): statistical significance (P<0.05)
- expression of NF-κB p65 protein in lung tissue (NF-κB p65; Gen-17 groups (12.5, 25, 50 mg/kg gavage) compared with NS group (P<0.001, P<0.05)): significantly increased
- expression of NF-κB p65 protein in lung tissue (NF-κB p65; after drug treatment, compared with LPS group (P<0.05)): down-regulate the expression of NF-κB p65 protein
- mRNA expression of IKKα/β in lung tissue (IKKα/β): significantly reduce the expression
- content of IL-1β in BALF (IL-1β; Gen-17 groups (12.5, 25, 50 mg/kg gavage) compared with LPS group (P<0.05)): reduce the contents of inflammatory cytokines
- IL-1β level in BALF (IL-1β; [1]): statistically significant reduction
- mRNA expression of TNF-α in lung tissue (TNF-α; Gen-17 (12.5, 25, 50 mg/kg gavage) compared with LPS group (P<0.001)): significantly reduce the expression
- mRNA expression of TNF-α in lung tissue (TNF-α; low-dose Gen-17 12.5 mg/kg gavage, compared with DEX group (P<0.001)): statistical significance
- total cell counts in BALF (LPS-induced ALI mice; Gen-17 groups (12.5, 25, 50 mg/kg gavage) compared with LPS group (P<0.001)): decreased significantly
- total cell counts in BALF (LPS-induced ALI mice; [1]): significantly increased
- total cell counts in BALF (LPS-induced ALI mice; low-dose Gen-17 12.5 mg/kg gavage, compared with NS group (P<0.001)): significantly increased
- total cell counts in BALF (LPS-induced ALI mice; middle-dose Gen-17 25 mg/kg gavage, compared with DEX group (P<0.01)): significantly increased
- total cell counts in BALF (LPS-induced ALI mice; middle-dose Gen-17 25 mg/kg gavage, compared with NS group (P<0.001)): significantly increased
